2 compounds from ChEMBL document CHEMBL1149407, “Angelmarin, a novel anti-cancer agent able to eliminate the tolerance of cancer cells to nutrient starvation” (2006) can be followed below.

The structures appear in SMILES notation. Active and inactive are the calls of the source. The rule behind the calls is not given here.

Test [1] concerns PANC-1. As to the kind of experiment: Cytotoxicity in pancreatic PANC1 cancer cells at 0.01 ug/ml within 24 hours of nutrient deprivation. It is filed as functional, Homo sapiens.
For test [2], the system named is PANC-1. Kind of test: Cytotoxicity in pancreatic PANC1 cancer cells at 10 ug/ml within 6 hours of nutrient deprivation. It is filed as functional, Homo sapiens.
Test [3] deals with PANC-1. As to the kind of experiment: Cytotoxicity in pancreatic PANC1 cancer cells at 100 ug/ml in nutrient-rich condition. Conditions: Homo sapiens. In kind it is functional, cell-based.
Test [4] deals with PANC-1. As to the kind of experiment: Cytotoxicity in pancreatic PANC1 cancer cells at 100 ug/ml in nutrient-deprived condition. In kind it is functional, cell-based. Conditions: Homo sapiens.

`CC(C)(OC(=O)/C=C/c1ccc(O)cc1)[C@@H]1Cc2c(ccc3ccc(=O)oc23)O1` [ANGELMARIN]: the Activity with PANC-1 [1] and in the test with PANC-1 [2] was 100% in each case.
Consider `CC(C)(O)[C@@H]1Cc2c(ccc3ccc(=O)oc23)O1`, for which the result in the test with PANC-1 [3] and in the test with PANC-1 [4] was inactive.
